Measured values taken from article PMC4102417 (PLoS Neglected Tropical Diseases, 2014).
Several values for one entry are separate records, joined by “and”; a condition that tells them apart may be missing. Equal values may be shown once. Where a name gives a salt, the structure may show the parent alone. Read-outs that look alike come from different tables or passages of the source.

Legend:
[1] = tested on: T. cruzi (Tulahuen strain); assay: microbe, parasite or virus in culture; assay type: cell-based, Trypanosoma cruzi; details: for activity at 10 µM / EC50: Trypanosoma cruzi, TULAHUEN, Fibroblast; for activity at 10 µM: read-out: T. cruzi % growth @ 10 uM (Amastigotes); for EC50: read-out: T. cruzi EC50
Experimental: Compounds were tested against T. cruzi (Tulahuen strain) stably expressing the beta-galactosidase gene as previously described. […] Fibroblasts were plated at a density of 2×10^3 per well in 96 well tissue culture plates. After 24 hours of incubation, 1×10^4 trypomastigotes/well were added to the fibroblasts and incubated for 4 hours before addition of the test compounds from the Spectrum Collection (10 µM final concentration). Cultures were incubated at 37°C for 5 days, then developed with chlorophenol red β-D-galactopyranoside as previously described. The percent inhibition is reported with standard deviation of the mean. […] Z-prime values were calculated for each 96-well plate based on positive (4 wells) and negative controls (4 wells).

3T3 fibroblast cells = assay: cells; assay type: cell-based, murine; details: for activity at 10 µM: Mus musculus, NIH3T3, 72 h, read-out: Mammalian (3T3) cell % growth at 10 uM

| Structure (SMILES) | activity at 10 µM ([1]; 120 h, 10 uM, Table S2) [%] | activity at 10 µM (3T3 fibroblast cells; 10 uM, Table S2) [%] | also measured |
| --- | --- | --- | --- |
| CC(=O)OC1CCC2(C)C3=C(CCC2C1(C)C)C1(C)CCC(C(C)CCC=C(C)C)C1(C)CC3 (centres unmarked) [EUPHOL ACETATE, 2,6,6,11,15-pentamethyl-14-(6-methylhept-5-en-2-yl)tetracyclo[8.7.0.0^{2,7}.0^{11,15}]heptadec-1(10)-en-5-yl acetate] | 12 | 87.6 |  |
| CC(=O)OC[C@H]1O[C@@H](Oc2cc(OC(C)=O)c3c(=O)cc(-c4ccc(OC(C)=O)cc4)oc3c2)[C@H](OC(C)=O)[C@@H](OC(C)=O)[C@@H]1OC(C)=O [COSMOSIIN HEXAACETATE] | 12.9 | 100 |  |
| CC(C)C(C)/C=C/C(C)C1CCC2C3=CC=C4CC(O)CCC4(C)C3CCC21C (centres unmarked) [ERGOSTEROL, 14-[(3E)-5,6-dimethylhept-3-en-2-yl]-2,15-dimethyltetracyclo[8.7.0.0^{2,7}.0^{11,15}]heptadeca-7,9-dien-5-ol] | 6 | 99.6 |  |
| CC(=O)OC1CC2C(C)(C)C(=O)CCC2(C)C2CCC3(C)C(c4ccoc4)OC(=O)C4OC43C12C (centres unmarked) [DIHYDROGEDUNIN, 7-(furan-3-yl)-1,8,12,16,16-pentamethyl-5,15-dioxo-3,6-dioxapentacyclo[9.8.0.0^{2,4}.0^{2,8}.0^{12,17}]nonadecan-19-yl acetate] | 5.8 | 81.4 |  |
| C=CC(C)(O)CCC1C(=C)CCC2C(C)(CO)CCCC12C (stereo not drawn) [EPI(13)TORULOSOL, 5-[5-(hydroxymethyl)-5,8a-dimethyl-2-methylidene-decahydronaphthalen-1-yl]-3-methylpent-1-en-3-ol] | 14.5 | 86.1 |  |
| CC(=O)O[C@@H]1CC2C(C)(C)C(=O)CC[C@]2(C)C2CC[C@]3(C)C(=CC(=O)O[C@H]3c3ccoc3)[C@@]21C (some centres unmarked) [DIHYDRODEOXYGEDUNIN] |  |  | T. cruzi % growth @ 10 uM (Amastigotes) ([1]; 10 uM, Table S2): 23.4%; Mammalian (3T3) cell % growth at 10 uM (3T3 fibroblast cells; 10 uM, Table S2): 83.8% |
| Clc1ccc(COC(Cn2ccnc2)c2ccc(Cl)cc2Cl)c(Cl)c1 (centres unmarked) [Miconazole, 1-[2-(2,4-dichlorophenyl)-2-[(2,4-dichlorophenyl)methoxy]ethyl]-1H-imidazole] | 0.4 | 100 |  |
| CC1=CC(=O)C2C(C)(C)CCCC2(C)C1(O)CCc1ccoc1 (centres unmarked) [SOLIDAGENONE, 4-[2-(furan-3-yl)ethyl]-4-hydroxy-3,4a,8,8-tetramethyl-1,4,4a,5,6,7,8,8a-octahydronaphthalen-1-one] | 15.1 | 75.8 |  |
| O=c1c(-c2cc(O)c(O)c(O)c2)coc2cc(O)c(O)c(O)c12 [IRIGENOL, 5,6,7-trihydroxy-3-(3,4,5-trihydroxyphenyl)-4H-chromen-4-one] | 5.7 | 73.7 |  |
| C=CC(C1=CC(=O)C(OC)=CC1=O)c1ccc(O)cc1 (centres unmarked) [DALBERGIONE, 4-METHOXY-4'-HYDROXY-, 2-[1-(4-hydroxyphenyl)prop-2-en-1-yl]-5-methoxycyclohexa-2,5-diene-1,4-dione] | 5.1 | 94.8 |  |
| CCCCCCCCCCCCCC(=O)O[C@@H]1[C@@H](C)[C@@]2(O)[C@@H](C=C(CO)C[C@]3(O)C(=O)C(C)=C[C@@H]23)[C@@H]2C(C)(C)[C@]12OC(C)=O [PHORBOL MYRISTATE ACETATE, (1S,2S,6R,10S,11R,13S,14R,15R)-13-(acetyloxy)-1,6-dihydroxy-8-(hydroxymethyl)-4,12,12,15-tetramethyl-5-oxotetracyclo[8.5.0.0^{2,6}.0^{11,13}]pentadeca-3,8-dien-14-yl tetradecanoate] | 5.6 | 89.2 |  |
| CC(=O)N1CCN(c2ccc(OC[C@H]3CO[C@](Cn4ccnc4)(c4ccc(Cl)cc4Cl)O3)cc2)CC1 [KETOCONAZOLE, 1-[4-(4-{[(2R,4S)-2-(2,4-dichlorophenyl)-2-(1H-imidazol-1-ylmethyl)-1,3-dioxolan-4-yl]methoxy}phenyl)piperazin-1-yl]ethan-1-one] | 2.1 | 100 | EC50 ([1]; Table S2, amastigotes): 0.3 nM; EC50 [1]: 1 nM |
| O=c1[nH]c(=O)n(C2CC(O)C(CO)O2)cc1F (centres unmarked) [FLOXURIDINE, 5-fluoro-1-[4-hydroxy-5-(hydroxymethyl)oxolan-2-yl]-1,2,3,4-tetrahydropyrimidine-2,4-dione] | 2.6 | 86.2 |  |
| CC(=O)OC1CCC2(C)C(CC(OC(C)=O)C3(C)C4=CC(=O)OC(c5ccoc5)C4(C)CCC23)C1(C)C (stereo not drawn) [3-DEOXO-3beta-ACETOXYDEOXYDIHYDROGEDUNIN, 18-(acetyloxy)-6-(furan-3-yl)-1,7,11,15,15-pentamethyl-4-oxo-5-oxatetracyclo[8.8.0.0^{2,7}.0^{11,16}]octadec-2-en-14-yl acetate] | 7.8 | 100 |  |
| CC(C)CC1C(=O)N2CCCC2C2(O)OC(NC(=O)C3C=C4c5cccc6[nH]c(Br)c(c56)CC4N(C)C3)(C(C)C)C(=O)N12 (centres unmarked) [BROMOCRIPTINE MESYLATE, 10-bromo-N-[2-hydroxy-7-(2-methylpropyl)-5,8-dioxo-4-(propan-2-yl)-3-oxa-6,9-diazatricyclo[7.3.0.0^{2,6}]dodecan-4-yl]-6-methyl-6,11-diazatetracyclo[7.6.1.0^{2,7}.0^{12,16}]hexadeca-1(15),2,9,12(16),13-pentaene-4-carboxamide; methanesulfonic acid] | 2 | 92.1 |  |
| C=CC(C)(O)CCC1C(=C)CC(O)C2C(C)(C)CCCC12C (centres unmarked) [LARIXOL, 4-(3-hydroxy-3-methylpent-4-en-1-yl)-4a,8,8-trimethyl-3-methylidene-decahydronaphthalen-1-ol] | 6.4 | 74 |  |
| CCOC(=O)C(CCc1ccccc1)NC1CCc2ccccc2N(CC(=O)O)C1=O (centres unmarked) [BENAZEPRIL HYDROCHLORIDE, 2-{3-[(1-ethoxy-1-oxo-4-phenylbutan-2-yl)amino]-2-oxo-2,3,4,5-tetrahydro-1H-1-benzazepin-1-yl}acetic acid hydrochloride] | 1 | 66.8 |  |
| CN1CCC(=C2c3ccccc3CCc3sccc32)CC1 [PIZOTYLINE MALATE, 1-methyl-4-{6-thiatricyclo[8.4.0.0^{3,7}]tetradeca-1(14),3(7),4,10,12-pentaen-2-ylidene}piperidine; 2-hydroxybutanedioic acid] | 21.4 | 86.5 |  |
| COc1cc(NC(C)CCCN)c2ncccc2c1 (centres unmarked) [Primaquine, N-(5-aminopentan-2-yl)-6-methoxyquinolin-8-amine; bis(phosphoric acid)] | 4.7 | 91.1 | EC50 ([1]; 120 h, intracellular amastigotes, 5 days, separate assays separated by semicolons): 300 nM |
| CC1(C)C2CC(=O)O[C@@]3(C)C4=CC(=O)O[C@@H](c5ccoc5)[C@]4(C)CCC3[C@@]2(C)C=C[C@H]1O (some centres unmarked) [DEOX[…]] | 13.2 | 82.7 |  |
| O=c1c(-c2ccc(O)cc2)coc2cc(O)cc(O)c12 [GENISTEIN, 5,7-dihydroxy-3-(4-hydroxyphenyl)-4H-chromen-4-one] | 6.4 | 100 |  |
| Oc1ccc(O)cc1 [HYDROQUINONE, benzene-1,4-diol] |  |  | activity at 10 µM ([1]; 120 h): 22.6%; activity at 10 µM (3T3 fibroblast cells): 93.9% |
| COc1ccc(CCN2CCC(Nc3nc4ccccc4n3Cc3ccc(F)cc3)CC2)cc1 [ASTEMIZOLE, 1-[(4-fluorophenyl)methyl]-N-{1-[2-(4-methoxyphenyl)ethyl]piperidin-4-yl}-1H-1,3-benzodiazol-2-amine] | 11.6 | 100 |  |
| CC1CCC2C(C)C(=O)OC3OC4(C)CCC1C32OO4 (centres unmarked) [ARTEMISININ, 1,5,9-trimethyl-11,14,15,16-tetraoxatetracyclo[10.3.1.0^{4,13}.0^{8,13}]hexadecan-10-one] | 17.5 | 77.6 | EC50 ([1]; Table S2, amastigotes): 5020 nM |
| CC1COC2=C1C(=O)C(=O)c1c2ccc2c1CCCC2(C)C (centres unmarked) [CRYPTOTANSHINONE, 6,6,14-trimethyl-12-oxatetracyclo[8.7.0.0^{2,7}.0^{11,15}]heptadeca-1(10),2(7),8,11(15)-tetraene-16,17-dione] | 4.5 | 87 |  |
| CCN(CC)CCOc1ccc(C(=C(Cl)c2ccccc2)c2ccccc2)cc1 [CLOMIPHENE, {2-[4-(2-chloro-1,2-diphenylethenyl)phenoxy]ethyl}diethylamine] | 12.9 | 100 |  |
| CCN(CCCCOC(=O)c1ccc(OC)c(OC)c1)C(C)Cc1ccc(OC)cc1 (centres unmarked) [MEBEVERINE, 4-{ethyl[1-(4-methoxyphenyl)propan-2-yl]amino}butyl 3,4-dimethoxybenzoate] | 4.1 | 92.3 |  |
| COc1cc2c(cc1OC)-c1cc3ccc(OC)c(OC)c3c[n+]1CC2.[Cl-] [PALMATINE, 3,4,10,11-tetramethoxy-7,8-dihydro-6000000l^5-azatetraphen-6-ylium l^3-chloridyl] |  |  | T. cruzi % growth @ 10 uM (Amastigotes) ([1]; 10 uM, Table S2): 8.1% and 11.5%; Mammalian (3T3) cell % growth at 10 uM (3T3 fibroblast cells; 10 uM, Table S2): 100.0% and 95.9% |
| Oc1cc2c(cc1O)C1c3ccc(O)c(O)c3OCC1(O)C2 (centres unmarked) [HAEMATOXYLIN, 8-oxatetracyclo[8.7.0.0^{2,7}.0^{12,17}]heptadeca-2,4,6,12,14,16-hexaene-5,6,10,14,15-pentol] | 3.7 | 100 |  |
